# In patent US20250304537A1 (Repare Therapeutics Inc., priority 2022, published 2025):
# Like-named read-outs stand apart in the source and are kept apart here.
# System: PKMYT1 (CDK1 pThr14) in FUOV1 cells
# Test: PKMYT1 cell-based activity assay, CDK1 pThr14 AlphaLISA in FUOV1 cells
# Settings: read-out: FUOV-1 CDK1 pThr14 IC50
# How it was run: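 FUOV1 cells were treated with PKMYT1 inhibitor for 2 h at 37 °C, then lysed. CDK1 pThr14 was measured by AlphaLISA, pairing an anti-pThr14 antibody with an anti-total CDK1 antibody (5 nM each). Signal read at 680/615 nm and used to derive IC50.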
Structure (SMILES),"IC50 (2 h, 2 h compound incubation) [nM]","IC50 (2 h, 2 hours with compound) [nM]",further results
COCCOc1ccc2oc3c(C(N)=O)c(N)c(-c4c(C)ccc5[nH]ncc45)cc3c2n1 [Compound 556],132,,
Cc1ccc2[nH]ncc2c1-c1nc(-c2cccnc2N[C@@H]2CCOC[C@H]2F)nc(C(N)=O)c1N [Compound 647],28,,
Cc1c(F)cc2[nH]ncc2c1-c1nc(-c2cc(F)c(F)cc2NC(=O)C2(C(F)(F)F)CC2)nc(C(N)=O)c1N [Compound 509],285,,
Cc1ccc2[nH]ncc2c1-c1cc(-c2ccnc(OCC(F)(F)F)n2)nc(C(N)=O)c1N [Compound 165],,,IC50 (2 h incubation): > 10000 nM
Cc1ccc2[nH]ncc2c1-c1nc(-c2cc(F)cnc2NC2CCN(CC(F)F)CC2)nc(C(N)=O)c1N [Compound 876],,734,
Cc1ccc2[nH]ncc2c1-c1nc(-c2cccnc2N[C@@H]2CCOC[C@@H]2F)nc(C(N)=O)c1N [Compound 643],7,,
"Cc1ccc2[nH]ncc2c1-c1nc(-c2ccc(F)cc2Nc2cccc(C#N)c2)nc(C(N)=O)c1N [Compound 580, 5-amino-2-(2-((3-cyanophenyl)amino)-4-fluorophenyl)-6-(5-methyl-1H-indazol-4-yl)pyrimidine-4-carboxamide]",44,,
Cc1ccc2[nH]ncc2c1-c1nc(-c2cc(F)cnc2NC2CC(F)(F)C2)nc(C(N)=O)c1N [Compound 678],31,,
CC(=O)N1CCN(c2nccc(-c3cc(-c4c(C)ccc5[nH]ncc45)c(N)c(C(N)=O)n3)n2)CC1 [Compound 215],,,"IC50 (2 h, 2 h incubation): 399 nM"
Cc1ccc2[nH]ncc2c1-c1nc(-c2cccnc2NC[C@@H]2CCCOC2)nc(C(N)=O)c1N [Compound 651],130,,
Cc1ccc2[nH]ncc2c1-c1nc(-c2ccc(F)cc2Nc2cncc(C#N)c2)nc(C(N)=O)c1N [Compound 673],1710,,
Cc1ccc2[nH]ncc2c1-c1nc(-c2cccnc2NC2CCCC2)nc(C(N)=O)c1N [Compound 681],11,,
Cc1ccc2[nH]ncc2c1-c1nc(-c2cccnc2NC2CCSCC2)nc(C(N)=O)c1N [Compound 597],49,,
Cc1ccc2[nH]ncc2c1-c1nc(-c2ccc(F)cc2Nc2ccccc2F)nc(C(N)=O)c1N [Compound 589],111,,
COCC(COC)Nc1cc(F)c(F)cc1-c1nc(C(N)=O)c(N)c(-c2c(C)ccc3[nH]ncc23)n1 [Compound 508],622,,
COc1cc(-c2nc(C(N)=O)c(N)c(-c3c(C)ccc4[nH]ncc34)n2)ccn1 [Compound 135],,,"IC50 (2 h, 2 h incubation): 1150 nM"
[2H]C([2H])([2H])c1ccc2[nH]ncc2c1-c1nc(-c2cc(F)ccc2Nc2ncc(F)cn2)nc(C(N)=O)c1N [Compound 684],122,,
Cc1ccc2[nH]ncc2c1-c1nc(-c2cc(F)cnc2N[C@@H](C)C2CC2)nc(C(N)=O)c1N [Compound 710],19,,
Cc1ccc2[nH]ncc2c1-c1nc(-c2cc(F)cnc2NC(C)C)nc(C(N)=O)c1N [Compound 679],13,,
Cc1ccc2[nH]ncc2c1-c1nc(-c2cccnc2NC2CCN(C)C2=O)nc(C(N)=O)c1N (stereo not shown) [Compound 561],426,,
Cc1ccc2[nH]ncc2c1-c1nc(-c2ccc(F)cc2Nc2cncc(F)c2)nc(C(N)=O)c1N [Compound 665],41,,
Cc1ccc2[nH]ncc2c1-c1nc(-c2cc(F)ccc2NS(=O)(=O)C2CCCC2)nc(C(N)=O)c1N [Compound 531],918,,
Cc1ccc2[nH]ncc2c1-c1nc(-c2cccnc2NCCN2CCOCC2)nc(C(N)=O)c1N [Compound 703],680,,
Cc1ccc2[nH]ncc2c1-c1nc(-c2cc(F)ccc2Nc2cccnn2)nc(C(N)=O)c1N [Compound 489],22,,
Cc1ccc2[nH]ncc2c1-c1nc(-c2ccc(F)cc2Nc2ccnnc2)nc(C(N)=O)c1N [Compound 553],183,,

# More lines, main results first:
"IC50 (2 h, 2 h compound incubation) [nM]","IC50 (2 h, 2 hours with compound) [nM]",Structure (SMILES),further results
,30,"Cc1ccc2[nH]ncc2c1-c1nc(-c2ccc(F)cc2NC2CS(=O)(=O)C2)nc(C(N)=O)c1N [Compound 811, 5-amino-2-(2-((1,1-dioxidothietan-3-yl)amino)-4-fluorophenyl)-6-(5-methyl-1H-indazol-4-yl)pyrimidine-4-carboxamide]",
3,,"Cc1ccc(O)c(C)c1-c1nc(-c2cccnc2Nc2nccnc2C)nc(C(N)=O)c1N [Compound 727, 5-amino-6-(3-hydroxy-2,6-dimethylphenyl)-2-(2-((3-methylpyrazin-2-yl)amino)pyridin-3-yl)pyrimidine-4-carboxamide]",
,92,Cc1ccc(-c2nc(C(N)=O)c(N)c(-c3c(C)ccc4[nH]ncc34)n2)c(N[C@H]2C[C@@](C)(O)C2)n1 [Compound 956],
7,,Cc1ccc(C#N)nc1Nc1ncccc1-c1nc(C(N)=O)c(N)c(-c2c(C)ccc3[nH]ncc23)n1 [Compound 740],
,469,NC(=O)c1nc(-c2cccnc2NC2CC2)nc(-c2cccc3[nH]ncc23)c1N [Compound 932],
,11,[2H]C([2H])([2H])c1ccc2[nH]ncc2c1-c1nc(-c2ccc(Cl)nc2Nc2nccnc2F)nc(C(N)=O)c1N [Compound 966],
,65,NC(=O)c1nc(-c2cccnc2NC2CC2)nc(-c2c(F)ccc3[nH]ncc23)c1N [Compound 933],
,7,Cc1cc(F)c2[nH]ncc2c1-c1nc(-c2ccc(F)nc2Nc2nc(F)ccc2F)nc(C(N)=O)c1N [Compound 879],
,4,Cc1ccc2[nH]ncc2c1-c1nc(-c2ccc(F)nc2Nc2nc(F)ccc2F)nc(C(N)=O)c1N [Compound 921],
55,,Cc1cnc(C)c(Nc2cc(F)ccc2-c2nc(C(N)=O)c(N)c(-c3c(C)ccc4[nH]ncc34)n2)n1 [Compound 719],
,511,Cc1ccc2[nH]ncc2c1-c1nc(-c2cc(F)cnc2N[C@H]2COC[C@H]2O)nc(C(N)=O)c1N [Compound 815],
,11,"Cc1ncc(F)c(Nc2nc(F)ccc2-c2nc(C(N)=O)c(N)c(-c3c(C)ccc4[nH]ncc34)n2)n1 [Compound 954, 5-amino-2-(6-fluoro-2-((5-fluoro-2-methylpyrimidin-4-yl)amino)pyridin-3-yl)-6-(5-methyl-1H-indazol-4-yl)pyrimidine-4-carboxamide]",
,> 10000,Cc1ccc2[nH]ncc2c1-c1nc(-c2ccccc2-c2ccn[nH]2)nc(C(N)=O)c1N [Compound 816],
,51,"Cc1ccc2[nH]ncc2c1-c1nc(-c2cc(Cl)ncc2Nc2ncccn2)nc(C(N)=O)c1N [Compound 955, 5-amino-2-(2-chloro-5-(pyrimidin-2-ylamino)pyridin-4-yl)-6-(5-methyl-1H-indazol-4-yl)pyrimidine-4-carboxamide]",
,659,Cc1ccc2[nH]ncc2c1-c1nc(-c2cn(C)nc2Nc2ncccn2)nc(C(N)=O)c1N [Compound 926],
23,,Cc1ccc2[nH]ncc2c1-c1nc(-c2ccc(C#N)cc2Nc2cccnn2)nc(C(N)=O)c1N [Compound 765],
,272,Cc1ccc2[nH]ncc2c1-c1nc(-c2ccc(C#N)nc2NC2CC(F)(F)C2)nc(C(N)=O)c1N [Compound 809],

"IC50 (2 h, 2 h compound incubation) [nM]","IC50 (2 h, 2 hours with compound) [nM]",Structure (SMILES),further results
534,,Cc1ccc2[nH]ncc2c1-c1nc(-c2cc(F)cnc2NC2CC(C)(C)C2)nc(C(N)=O)c1N [Compound 732],
,1120,Cc1ccc2[nH]ncc2c1-c1nc(-c2cc(F)cnc2OC2CC(C)(O)C2)nc(C(N)=O)c1N (stereo not shown) [Compound 841],
,9,Cc1ccc(-c2nc(C(N)=O)c(N)c(-c3c(C)ccc4[nH]ncc34)n2)c(Nc2nccc(Cl)n2)n1 [Compound 941],
120,,Cc1ccc2[nH]ncc2c1-c1nc(-c2cccnc2Nc2ncccn2)nc(C(N)=O)c1N [Compound 726],
,14,CCc1ccc(-c2nc(C(N)=O)c(N)c(-c3c(C)ccc4[nH]ncc34)n2)c(Nc2ncccc2F)n1 [Compound 975],
271,,C[C@]1(O)C[C@@H](Nc2nc(Cl)ccc2-c2nc(C(N)=O)c(N)c(-c3c(Cl)ccc4[nH]ncc34)n2)C1 [Compound 790],
,33,Cc1ccc2[nH]ncc2c1-c1nc(-c2cc(F)cnc2N[C@H]2C[C@@H]3CC[C@H]2O3)nc(C(N)=O)c1N [Compound 899],
,96,Cc1ccc2[nH]ncc2c1-c1nc(-c2ccc(C#N)nc2NC2CCOCC2)nc(C(N)=O)c1N [Compound 810],
,118,Cn1cc(-c2nc(C(N)=O)c(N)c(-c3c(Cl)ccc4[nH]ncc34)n2)c(NC2CCCC2)n1 [Compound 920],
14,,Cc1ccc2[nH]ncc2c1-c1nc(-c2ccc(C#N)cc2Nc2nccnc2C)nc(C(N)=O)c1N [Compound 751],
87,,Cc1ccc2[nH]ncc2c1-c1nc(-c2cc(F)cnc2NCC(F)(F)F)nc(C(N)=O)c1N [Compound 747],
,14,Cc1cc(F)c2[nH]ncc2c1-c1nc(-c2ccc(F)nc2Nc2nc(C(F)F)ccc2F)nc(C(N)=O)c1N [Compound 867],
,36,Cc1ccc2[nH]ncc2c1-c1nc(-c2cc(F)cnc2N[C@@H]2CCOCC2(F)F)nc(C(N)=O)c1N [Compound 883],
,702,"[2H]C([2H])([2H])c1ccc2[nH]ncc2c1-c1nc(-c2cccnc2NC23CC(C(N)=O)(C2)C3)nc(C(N)=O)c1N [Compound 962, 5-amino-2-(2-((3-carbamoylbicyclo[1.1.1]pentan-1-yl)amino)pyridin-3-yl)-6-(5-(methyl-d3)-1H-indazol-4-yl)pyrimidine-4-carboxamide]",
,14,[2H]C([2H])([2H])c1ccc2[nH]ncc2c1-c1nc(-c2ccc(F)nc2Nc2nc(C)ncc2F)nc(C(N)=O)c1N [Compound 972],
,203,[2H]C([2H])([2H])c1ccc2[nH]ncc2c1-c1nc(-c2ccc(C3CC3)nc2Nc2nc(C)ncc2F)nc(C(N)=O)c1N [Compound 977],
